Legend:
[1] = biological target: PTRGER4 (EP4) (Homo sapiens (Human), UniProt P35408); experiment: hEP4 b-arrestin assay (PathHunter HEK 293 PTGER4 b-arrestin cells); assay type: cell-based
How it was run: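 Antagonist mode: compound is given 15 min at 37 °C, then 20 nM (final) PGE2 for 120 min, in HEK293 cells stably expressing EP4 fused to ProLink and β-arrestin 2 fused to EA. Recruitment read as β-gal luminescence after 1 h reagent at room temperature, as percent of DMSO control.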

[2] = biological target: PTGER2 (EP2) (Homo sapiens (Human), UniProt P43116); experiment: hEP2 b-arrestin assay (PathHunter HEK 293 PTGER2 b-arrestin cells); assay type: cell-based
How it was run: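 Readout is β-galactosidase complementation luminescence, expressed as percent of DMSO control (duplicates). PathHunter HEK293 EP2/β-arrestin 2 cells, grown 24 h, received compound for 15 min at 37 °C before a 120 min challenge with PGE2 at 5 μM final, followed by 1 h detection at room temperature.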

[3] = hEP4 b-arrestin assay (values without asterisk)
[4] = hEP2 b-arrestin assay (values without asterisk)
[5] = antagonistic activity on hEP4, mean where measured multiple times
[6] = antagonistic activity on hEP2, mean where measured multiple times

Chain of PTRGER4 (EP4) (P35408 whole entry, looked up, the tested form may be a part): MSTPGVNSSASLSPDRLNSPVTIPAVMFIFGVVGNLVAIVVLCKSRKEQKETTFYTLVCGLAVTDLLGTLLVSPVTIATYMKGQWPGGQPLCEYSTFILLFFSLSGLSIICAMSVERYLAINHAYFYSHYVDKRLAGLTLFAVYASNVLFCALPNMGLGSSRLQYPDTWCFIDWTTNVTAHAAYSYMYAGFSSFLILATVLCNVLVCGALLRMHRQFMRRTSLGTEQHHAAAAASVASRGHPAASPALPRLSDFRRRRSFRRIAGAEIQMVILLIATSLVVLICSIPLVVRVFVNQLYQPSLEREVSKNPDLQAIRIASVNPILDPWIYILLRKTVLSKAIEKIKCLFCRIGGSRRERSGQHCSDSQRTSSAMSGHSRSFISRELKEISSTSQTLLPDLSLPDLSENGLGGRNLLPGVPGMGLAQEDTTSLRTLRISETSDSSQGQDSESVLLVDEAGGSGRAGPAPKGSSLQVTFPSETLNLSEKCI
Chain of PTGER2 (EP2) (P43116 whole entry): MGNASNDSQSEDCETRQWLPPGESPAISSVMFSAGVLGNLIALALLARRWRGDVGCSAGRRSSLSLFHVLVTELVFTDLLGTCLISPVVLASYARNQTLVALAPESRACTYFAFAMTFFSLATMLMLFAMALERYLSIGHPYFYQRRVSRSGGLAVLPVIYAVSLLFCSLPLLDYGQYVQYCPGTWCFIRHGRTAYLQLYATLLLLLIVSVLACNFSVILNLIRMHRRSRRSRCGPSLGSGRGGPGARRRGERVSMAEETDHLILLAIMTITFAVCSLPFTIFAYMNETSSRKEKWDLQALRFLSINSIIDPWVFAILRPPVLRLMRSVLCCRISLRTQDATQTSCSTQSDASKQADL

Structure (SMILES)	IC50 [1, 3]	IC50 [2, 4]	IC50 [1, 5]	IC50 [2, 6]
N#Cc1cc2c(Cl)cccc2n1CCNc1cc(-c2cc(F)c(C(=O)O)s2)ncn1 [Example 903, 5-{6-[2-(4-Chloro-2-cyano-indol-1-yl)-ethylamino]-pyrimidin-4-yl}-3-fluoro-thiophene-2-carboxylic acid]	69 nM	4 nM	–	–
COc1ccc(F)c2c1cc(C#N)n2CCNc1cc(-c2ccnc(C3CC3)c2)ncn1 [Example 986, 1-{2-[6-(2-Cyclopropyl-pyridin-4-yl)-pyrimidin-4-ylamino]-ethyl}-7-fluoro-4-methoxy-1H-indole-2-carbonitrile]	66 nM	9 nM	–	–
COc1cc(F)c(F)c2c1cc(C)n2CCNc1cc(-c2ccc(-c3c[nH]cn3)cc2)ncn1 [compound 307, [2-(6,7-Difluoro-4-methoxy-2-methyl-indol-1-yl)-ethyl]-{6-[4-(1H-imidazol-4-yl)-phenyl]-pyrimidin-4-yl}-amine]	–	–	47 nM	25 nM
Cc1ccc(F)c2c1cc(C)n2CCNc1cc(-c2ccc(C(=O)NCCO)cc2)ncn1 [compound 168]	–	–	995 nM	146 nM
CCNc1cc(-c2cc(NCCn3c(C)cc4c(C)ccc(F)c43)ncn2)cc(F)c1C(=O)O [compound 392]	–	–	97 nM	7 nM
CCCSc1cc(-c2cc(NCCn3c(C#N)cc4c(OC)ccc(F)c43)ncn2)ccc1C(=O)O [Example 935, 4-{6-[2-(2-Cyano-7-fluoro-4-methoxy-indol-1-yl)-ethylamino]-pyrimidin-4-yl}-2-propylsulfanyl-benzoic acid]	4 nM	7 nM	–	–
COc1ccc(F)c2c1cc(C)n2CCNc1cc(-c2nc(CC(C)C)c(C(=O)O)s2)ncn1 [Example 1036, 2-{6-[2-(7-Fluoro-4-methoxy-2-methyl-indol-1-yl)-ethylamino]-pyrimidin-4-yl}-4-isobutyl-thiazole-5-carboxylic acid]	20 nM	24 nM	–	–
CCOc1cc(-c2cc(NCCn3c(C#N)cc4c(OC)ccc(F)c43)ncn2)ccc1C(=O)O [Example 807, 4-{6-[2-(2-Cyano-7-fluoro-4-methoxy-indol-1-yl)-ethylamino]-pyrimidin-4-yl}-2-ethoxy-benzoic acid]	55 nM	32 nM	–	–
CCOc1cc(-c2cc(NCCn3c(C)cc4ccc(OC)cc43)ncn2)sc1C(=O)O [compound 117, 3-Ethoxy-5-{6-[2-(6-methoxy-2-methyl-indol-1-yl)-ethylamino]-pyrimidin-4-yl}-thiophene-2-carboxylic acid]	–	–	114 nM	1 nM
CCc1cc(-c2cc(NCCn3c(C)cc4c(F)ccc(F)c43)ncn2)ccc1C(=O)O [compound 121, 4-{6-[2-(4,7-Difluoro-2-methyl-indol-1-yl)-ethylamino]-pyrimidin-4-yl}-2-ethyl-benzoic acid]	–	–	765 nM	5 nM
COc1ccc(F)c2c1cc(C#N)n2CCNc1cc(-c2ccc3[nH]c(=O)oc3c2)ncn1 [Example 972, 7-Fluoro-4-methoxy-1-{2-[6-(2-oxo-2,3-dihydro-benzooxazol-6-yl)-pyrimidin-4-ylamino]-ethyl}-1H-indole-2-carbonitrile]	18 nM	6 nM	–	–
Cc1cc2c(Cl)ccc(Cl)c2n1CCNc1cc(-c2ccc3[nH]c(C(=O)O)cc3c2)ncn1 [compound 198]	–	–	299 nM	96 nM
CCCc1cc(-c2cc(NCCn3c(C)cc4c(OC)ccc(F)c43)ncn2)ccc1C(=O)O [compound 348, 4-{6-[2-(7-Fluoro-4-methoxy-2-methyl-indol-1-yl)-ethylamino]-pyrimidin-4-yl}-2-propyl-benzoic acid]	–	–	76 nM	5 nM
COc1ccc(F)c2c1cc(C#N)n2CCNc1cc(-c2cc(C(=O)O)cs2)ncn1 [Example 1008, 5-{6-[2-(2-Cyano-7-fluoro-4-methoxy-indol-1-yl)-ethylamino]-pyrimidin-4-yl}-thiophene-3-carboxylic acid]	507 nM	234 nM	–	–
CCCc1cc(-c2cc(NCCn3c(C)cc4c(F)ccc(Cl)c43)ncn2)ccc1C(=O)O [compound 143, 4-{6-[2-(7-Chloro-4-fluoro-2-methyl-indol-1-yl)-ethylamino]-pyrimidin-4-yl}-2-propyl-benzoic acid]	–	–	658 nM	5 nM
COc1ccc(F)c2c1cc(C#N)n2CCNc1cc(-c2ccc3[nH]ncc3c2)ncn1 [Example 977, 7-Fluoro-1-{2-[6-(1H-indazol-5-yl)-pyrimidin-4-ylamino]-ethyl}-4-methoxy-1H-indole-2-carbonitrile]	6 nM	5 nM	–	–
CSc1cc(-c2cc(NCCn3c(C)cc4c(Cl)ccc(Cl)c43)ncn2)cc(F)c1C(=O)O [compound 141, 4-{6-[2-(4,7-Dichloro-2-methyl-indol-1-yl)-ethylamino]-pyrimidin-4-yl}-2-fluoro-6-methylsulfanyl-benzoic acid]	–	–	992 nM	20 nM

Structure (SMILES)	IC50 [1, 3]	IC50 [2, 4]	IC50 [1, 5]	IC50 [2, 6]
[2H]C([2H])(Nc1cc(-c2cc(Cl)c(C(=O)O)c(OCCCC)c2)ncn1)C([2H])([2H])n1c(C)cc2c(OC)ccc(F)c21 [Example 836, 2-butoxy-6-chloro-4-(6-((2-(7-fluoro-4-methoxy-2-methyl-1H-indol-1-yl)ethyl-1,1,2,2-d4)amino)pyrimidin-4-yl)benzoic acid]	32 nM	7 nM	–	–
Cc1nc2cc(-c3cc(NCCn4c(C)cc5c(C)ccc(F)c54)ncn3)ccc2[nH]1 [compound 54]	–	–	305 nM	125 nM
CCOc1cc(-c2cc(NCCn3c(C#N)cc4cccc(F)c43)ncn2)ccc1NCC(=O)O [Example 896, (4-{6-[2-(2-Cyano-7-fluoro-indol-1-yl)-ethylamino]-pyrimidin-4-yl}-2-ethoxy-phenylamino)-acetic acid]	34 nM	2 nM	–	–
COc1ccc(F)c2c1cc(C#N)n2CCNc1cc(-c2ccc(-c3nc[nH]c3C)cc2)ncn1 [Example 819, 7-Fluoro-4-methoxy-1-(2-{6-[4-(5-methyl-1H-imidazol-4-yl)-phenyl]-pyrimidin-4-ylamino}-ethyl)-1H-indole-2-carbonitrile]	2 nM	7 nM	–	–
COc1ccc(F)c2c1cc(C)n2CCNc1cc(-c2ccc3c(c2)CC(=O)N3)ncn1 [compound 91, 5-{6-[2-(7-Fluoro-4-methoxy-2-methyl-indol-1-yl)-ethylamino]-pyrimidin-4-yl}-1,3-dihydro-indol-2-one]	–	–	144 nM	32 nM
CCCSc1cc(-c2cc(NCCn3c(C)cc4c(C)c(F)cc(Cl)c43)ncn2)ccc1C(=O)O [compound 371]	–	–	875 nM	70 nM
COc1cc(F)cc2c1cc(C#N)n2CCNc1cc(-c2ccc(C(=O)O)c(SC(C)C)c2)ncn1 [Example 938, 4-{6-[2-(2-Cyano-6-fluoro-4-methoxy-indol-1-yl)-ethylamino]-pyrimidin-4-yl}-2-isopropylsulfanyl-benzoic acid]	29 nM	38 nM	–	–
COc1ccc(F)c2c1cc(C)n2CCNc1cc(-c2ccc(-c3cnco3)cc2)ncn1 [compound 202, [2-(7-Fluoro-4-methoxy-2-methyl-indol-1-yl)-ethyl]-[6-(4-oxazol-5-yl-phenyl)-pyrimidin-4-yl]-amine]	–	–	105 nM	16 nM
COc1ccc(F)c2c1cc(C#N)n2CCNc1cc(-c2cnc3[nH]ccc3c2)ncn1 [Example 979, 7-Fluoro-4-methoxy-1-{2-[6-(1H-pyrrolo[2,3-b]pyridin-5-yl)-pyrimidin-4-ylamino]-ethyl}-1H-indole-2-carbonitrile]	15 nM	4 nM	–	–
CCCC1NC(=O)c2ccc(-c3cc(NCCn4c(C)cc5c(OC)cccc54)ncn3)cc21 (racemic) [compound 314]	–	–	303 nM	15 nM
COc1nc(-c2cc(NCCn3c(C)cc4c(OC)ccc(F)c43)ncn2)cs1 [compound 2]	–	–	251 nM	267 nM
Cc1cc(F)c(F)c2c1cc(C)n2CCNc1cc(-c2ccc(-c3c[nH]cn3)cc2)ncn1 [compound 176, [2-(6,7-Difluoro-2,4-dimethyl-indol-1-yl)-ethyl]-{6-[4-(1H-imidazol-4-yl)-phenyl]-pyrimidin-4-yl}-amine]	–	–	71 nM	36 nM
CCOc1cc(-c2cc(NCCn3c(C#N)cc4c(OC)cc(F)c(F)c43)ncn2)ccc1NCC(=O)O [Example 945, (4-{6-[2-(2-Cyano-6,7-difluoro-4-methoxy-indol-1-yl)-ethylamino]-pyrimidin-4-yl}-2-ethoxy-phenylamino)-acetic acid]	2 nM	9 nM	–	–
COc1cccc2c1cc(C)n2CCNc1cc(-c2ccc(-c3nnc[nH]3)cc2)ncn1 [compound 100, [2-(4-Methoxy-2-methyl-indol-1-yl)-ethyl]-{6-[4-(4H-[1,2,4]triazol-3-yl)-phenyl]-pyrimidin-4-yl}-amine]	–	–	202 nM	11 nM
COc1ccc(F)c2c1cc(C#N)n2CCNc1cc(-c2c[nH]c3ncccc23)ncn1 [Example 978, 7-Fluoro-4-methoxy-1-{2-[6-(1H-pyrrolo[2,3-b]pyridin-3-yl)-pyrimidin-4-ylamino]-ethyl}-1H-indole-2-carbonitrile]	16 nM	1 nM	–	–
CCCCOc1cc(-c2cc(NCCn3c(C)cc4c(OC)cc(F)c(F)c43)ncn2)ccc1C(=O)O [Example 878, 2-Butoxy-4-{6-[2-(6,7-difluoro-4-methoxy-2-methyl-indol-1-yl)-ethylamino]-pyrimidin-4-yl}-benzoic acid]	22 nM	1 nM	–	–
Cc1ccc(F)c2c1cc(C)n2CCNc1cc(-c2ccc(-c3cc(N)no3)cc2)ncn1 [compound 189, {6-[4-(3-Amino-isoxazol-5-yl)-phenyl]-pyrimidin-4-yl}-[2-(7-fluoro-2,4-dimethyl-indol-1-yl)-ethyl]-amine]	–	–	106 nM	19 nM

Reference: patent US12011444B2, “N-substituted indole derivatives as PGE2 receptor modulators” (Idorsia Pharmaceuticals Ltd, priority 2015, dated 2024)
